We go through three molecules from patent US3985798A, “11α-HOMO-PROSTANOIC ACIDS AND ESTERS” (American Cyanamid Company, priority 1975, dated 1976).

This experiment relates to basal gastric acid secretion. Kind of experiment: Inhibition of Total Acid Output in the Acute Gastric Fistula Rat (inhibition of basal gastric acid secretion). Particulars: 10 mg./kg. intraduodenal, vs concurrent vehicle control; for Total Acid Output % Inhibition, 60"(A): sample A, 60 minutes; for Total Acid Output % Inhibition, 120"(B): sample B, 120 minutes. Type of experiment: in vivo, Female Sprague-Dawley rats. The source says: The natural prostaglandins have a broad spectrum of biological properties. Because of these diverse effects their potential therapeutic use is limited. […] On the other hand, they do inhibit gastic acid secretion and accordingly are potentially useful for the treatment of peptic ulcers, gastric hyperacidity and gastric erosion. Inhibition of basal gastric acid secretion can be determined by the following procedure. Female Sprague-Dawley rats weighing 140-160 grams are fasted in individual cages for 18-24 hours. The rats are then lightly anesthetized with ether and their front teeth extracted to avoid destruction of the plastic cannula. A midline incision is then made and the stomach and duodenum exposed. A flanged polyvinyl tube is inserted into the fundic portion of the stomach and secured with a purse string suture line using 4-0 Mersilene. The rat is then dosed by injection of the compound into the duodenum (1.0 ml. per 100 gram body weight). After dosing, the abdominal wall and skin are closed using metal wound clips. The rat is replaced in a cage containing a longitudinal slit to allow the polyvinyl tube to hang freely. An 8 ml. plastic collecting tube is attached to the flanged cannula and hangs freely below the cage. The first 30 minute sample is discarded designating this time as zero. The collecting tube is attached again and samples removed at the end of 60 and 120 minutes. These samples are referred to as A and B in the table. The hourly samples are then transferred to a 15 ml. centrifuge and centrifuged for 5-10 minutes. Total and sediment volume are then recorded with the supernatant volume being used as volume of secretion. A 1 ml. or less aliquot is then removed and placed in a 50 ml. beaker containing 10 ml. of distilled water. This sample is then titrated using 0.01N NaOH to pH 7.0 using a Beckman zeromatic pH meter, Volume, titratable acidity (meq/L), and total acid output (ueg/hour) are recorded. Percent inhibition is determined by comparison with the appropriate control. Groups of three rats were used for preliminary testing, and groups of six rats were used for dose-response evaluations. All compounds are administered in a vehicle consisting of 0.5% methocel, 0.4% Tween 80, and saline at a constant volume of 1 ml./100 gram rat. Samples are dispersed by sonification. Percent inhibition is calculated on basis of concurrent vehicle control.
In Table A which follows is given the effect on total acid output after 120 minutes of a 10 mg./kg. intraduodenal dose of representative compounds of this invention.

In the case of `CCCCC[C@@H](O)/C=C/[C@H]1CC=CC(=O)[C@@H]1CCCCCCC(=O)O` (relative stereo) [9-oxo-15-epi-hydroxy-11a-homo-10,13-trans-prostadienoic acid], the “Total Acid Output % Inhibition, 60"(A)” value is listed as 43% and the “Total Acid Output % Inhibition, 120"(B)” value is 47%.

For the molecule `CCCCC[C@H](O)/C=C/[C@H]1CC=CC(=O)[C@@H]1CCCCCCC(=O)O` (relative stereo) [dl-11a-homoprostaglandin A1, 9-oxo-15-hydroxy-11a-homo-10,13-trans-prostadienoic acid], the “Total Acid Output % Inhibition, 60"(A)” value is listed as 35% and the “Total Acid Output % Inhibition, 120"(B)” value was 33%.

For `CCCCC[C@H](O)/C=C/[C@H]1C[C@H](O)CC(=O)[C@@H]1CCCCCCC(=O)O` (relative stereo) [dl-11a-homoprostaglandin E1, 9-oxo-11α,15-dihydroxy-11a-homo-13-trans-prostenoic acid], the “Total Acid Output % Inhibition, 60"(A)” value is given as 69% and the “Total Acid Output % Inhibition, 120"(B)” value amounted to 74%.
